Each block holds one compound with its values, some of them ahead of it. Residues, ends and D or L forms follow the SMILES beside them. *: point of attachment. Cbz = O=C(OCc1ccccc1)*
Target: T1, carboxypeptidase Y (CPD-Y) immobilized to Acti-Disk (Saccharomyces cerevisiae, UniProt P00729)
T1 construct: purchased Sigma
T1 sequence (P00729 112-532): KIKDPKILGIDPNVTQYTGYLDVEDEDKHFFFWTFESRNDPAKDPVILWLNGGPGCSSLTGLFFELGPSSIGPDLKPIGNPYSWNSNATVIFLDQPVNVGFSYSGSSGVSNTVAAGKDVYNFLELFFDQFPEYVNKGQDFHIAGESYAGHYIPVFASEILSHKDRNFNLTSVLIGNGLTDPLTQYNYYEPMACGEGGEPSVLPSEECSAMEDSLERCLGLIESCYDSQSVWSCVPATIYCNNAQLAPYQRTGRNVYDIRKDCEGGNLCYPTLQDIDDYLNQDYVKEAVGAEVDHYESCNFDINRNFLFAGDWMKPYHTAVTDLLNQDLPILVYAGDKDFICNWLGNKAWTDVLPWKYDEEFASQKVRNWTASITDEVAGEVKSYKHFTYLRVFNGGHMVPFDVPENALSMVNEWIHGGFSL
Experiment: Flow digestion of N-CBZ-peptides through CPD-Y Acti Disk, ninhydrin assays
Format: biochemical, yeast
Description: The reported Km values for CPD-Y have been generated using extremely low enzyme concentration compared to substrate concentration. The value for Km represents the concentration of substrate that will produce 1/2 the maximum velocity for the initial reaction rates. During the testing of the immobilized CPD-Y enzyme disks with various dipeptide substrates, the maximum flow rate that can be achieved without any substantial increase in the pressure of the solution, is 4 ml/min. At this flow rate, the substrate remains within the immobilized enzyme matrix for 1.74 seconds. This value is determined by dividing the internal porous volume of the matrix to which the enzyme is immobilized (115 μL/4000 μL, min^-1). Due to the high concentration of enzyme (565 μM) within the limited volume of the immobilization matrix (115 μl) a very high percentage of the substrate was hydrolyzed even at these short incubation times which prevents the accurate determination of actual Km values for the individual substrates.
Standard ninhydrin assay: Hydrolysis of the non-proline containing N-CBZ-dipeptides was determined by assaying the amount of free amino acid released by a colorometric ninhydrin reaction at a pH greater than 5.2. One gram of ninhydrin was dissolved in 50 ml ethylene glycol monomethyl ether containing 0.03% ascorbic acid. This ninhydrin solution was made fresh daily. A 0.4 M Citrate buffer, pH 5.2 was made by adjusting the pH of ACS grade citric acid with NaOH. Two hundred microliter samples at pH greater than 5.2 were mixed with an equal volume of ninhydrin reagent and incubated at 100° C. for 20 minutes. When 200 μl samples below pH 5.2 were to be assayed, 100 μl of 0.4 M Citrate buffer was included prior to heating the sample to 100° C. Samples were then cooled to room temperature and 600 μl of 60% ethanol was added as the diluent and the absorbance was read at 570 nm on a Beckman DU 7000 spectrophotometer.
Proline ninhydrin assay: Hydrolysis of proline-containing N-CBZ-dipeptides were measured with a modified version of the assay described by Magne and Larher [Anal. Biochem., 200:115 (1982)]. Briefly a ninhydrin reagent containing 2% ninhydrin prepared in glacial acetic acid:water 60:40 (v/v) was prepared. Five hundred microliter samples were combined with 500 μl glacial acetic acid and 500 μl ninhydrin reagent was added. The sample was subsequently boiled for one hour. One milliliter of analytical grade toluene was then used to extract the chromophore and the absorbance was read at 520 nm.
Concentrations of N-CBZ-Ala-Pro ranging from 4 mM to 100 μM (100 mM citrate, 100 mM NaCl, pH 5.75) were passed through a CPD-Y Acti Disk at a flow rate of 2.0 ml/min. Reaction rates were determined by assaying the appropriate dilutions of the various substrates using the above described proline ninhydrin assay specific of free proline to obtain […] readings below 1.5.
N-CBZ-Ala-Pro (dissolved in 100 mM citrate, 100 mM NaCl, pH 5.75) at a concentration of 200 μM, was passed through the same CPD-Y Acti Disk at flow rates ranging from 2 ml/min to 175 μl/ min. Five milliliters of each specific flow rate were collected and assayed by the proline ninhydrin assay in order to determine the relative percentage of substrate that was hydrolyzed using the various flow rates. In order to characterize the amount of substrate hydrolyzed per unit of time, flow rates are converted to amount of time that the substrate is within the immobilized enzyme matrix (Acti Disk). The amount of time the substrate is within the immobilized enzyme matrix at a given flow rate is shown below in Table 6.
The first order rate constant determined for the N-CBZ-Ala-Pro substrate is applicable only as a reference for comparison to other N-CBZ-dipeptide first order rate constants. N-CBZ-Phe-Ala is the substrate used by Sigma to characterize the activity of CPD-Y at 100 units per milligram, 1 unit can hydrolyze 1 μmol of N-CBZ-Phe-Ala per minute. […]

[1] = flow rate 2 ml/min, 3.45 seconds, pH 5.75, ~25° C.
[2] = 200 μM substrate, varied flow rates
[3] = 200 μM substrate, 2 × 2 ml/min (two passes)
[4] = 200 μM substrate, flow rate 0.25 ml/min, one pass
[5] = 200 μM substrate, flow rate 1.0 ml/min, one pass
[6] = 200 μM substrate, flow rate 2.0 ml/min, one pass
[7] = second flow at 2.0 ml/min, 3.45 seconds

K^1 min^-1 (first order reaction constant) [1]: 0.160 min⁻¹
Log S/S-P [1]: 0.004
SMILES: O=C(NCC(=O)N1CCC[C@H]1C(=O)O)OCc1ccccc1 [N-CBZ-Gly-Pro] (Cbz-Gly-Pro-OH)

First-order rate constant (200 μM substrate, converted from seconds^-1): 3.84 min⁻¹
Log S/S-P (200 μM substrate, flow rate 175 μl/min, 36.4 seconds): 1.541
Log S/S-P (200 μM substrate, flow rate 350 μl/min, 19.7 seconds): 1.022
Log S/S-P (200 μM substrate, flow rate 1000 μl/min, 6.90 seconds): .672
Log S/S-P (200 μM substrate, flow rate 2000 ml/min (so in the source), 3.45 seconds): .560
First-order rate constant [2]: 4.14 min⁻¹
Slope of log [S]/[S]-[P] over seconds [2]: 0.030
Log S/S-P (500 μM substrate, 1 pass at 2000 μl/min, 3.45 sec): .614
Log S/S-P (500 μM substrate, 2 passes at 2000 μl/min, 6.90 sec): 1.236
Log S/S-P (500 μM substrate, 3 passes at 2000 μl/min, 10.35 sec): 1.870
Slope of log [S]/[S]-[P] versus seconds (500 μM substrate, repeated passes at 2000 μl/min): 0.199
K^1 min^-1 (first order reaction constant) [1]: 22.40 min⁻¹
Log S/S-P [1]: 0.560
Velocity (substrate concentration 100 μM, flow rate 2.0 ml/min, pH 5.75): 170 nM/min
Velocity (substrate concentration 200 μM, flow rate 2.0 ml/min, pH 5.75): 344 nM/min
Velocity (substrate concentration 300 μM, flow rate 2.0 ml/min, pH 5.75): 503 nM/min
Velocity (substrate concentration 500 μM, flow rate 2.0 ml/min, pH 5.75): 846 nM/min
Velocity (substrate concentration 1000 μM, flow rate 2.0 ml/min, pH 5.75): 1684 nM/min
SMILES: C[C@H](NC(=O)OCc1ccccc1)C(=O)N1CCC[C@H]1C(=O)O [N-CBZ-Ala-Pro] (Cbz-Ala-Pro-OH)

Concentration of amino acids released, standard ninhydrin assay [3]: 353.4 µM
Concentration of proline released, proline ninhydrin assay [3]: 195.6 µM
Concentration of amino acids released, standard ninhydrin assay [4]: 384.0 µM
Concentration of proline released, proline ninhydrin assay [4]: 212.5 µM
Concentration of amino acids released, standard ninhydrin assay [5]: 315.9 µM
Concentration of proline released, proline ninhydrin assay [5]: 196.5 µM
Concentration of amino acids released, standard ninhydrin assay [6]: 265.7 µM
Concentration of proline released, proline ninhydrin assay [6]: 197.0 µM
Kinetic constant k for the remaining Pro-Leu bond [7]: 18.39
Product released in second flow [7]: 87.7 µM
SMILES: CC(C)C[C@H](NC(=O)[C@@H]1CCCN1C(=O)CNC(=O)OCc1ccccc1)C(=O)N[C@@H](C)C(=O)N1CCC[C@H]1C(=O)O [N-CBZ-Gly-Pro-Leu-Ala-Pro] (Cbz-GPLAP-OH)

Second part, the compound before the results:

SMILES: O=C(O)CC[C@H](NC(=O)OCc1ccccc1)C(=O)N[C@@H](Cc1ccc(O)cc1)C(=O)O [N-CBZ-Glu-Tyr] (Cbz-Glu-Tyr-OH)
K^1 min^-1 (first order reaction constant) [1]: 24.24 min⁻¹
Log S/S-P [1]: 0.606

SMILES: C[C@H](NC(=O)[C@H](Cc1ccccc1)NC(=O)OCc1ccccc1)C(=O)O [N-CBZ-Phe-Ala]
Concentration of released alanine (20 mM substrate, flow rate 4 ml/minute): 10.49 mM
Rate of digestion (20 mM substrate, flow rate 4 ml/minute, pH 5.75): 41.96 µmol/min

SMILES: O=C(O)[C@H](Cc1ccccc1)NC(=O)[C@@H]1CCCN1C(=O)OCc1ccccc1 [N-CBZ-Pro-Phe] (Cbz-Pro-Phe-OH)
K^1 min^-1 (first order reaction constant) [1]: 1.480 min⁻¹
Log S/S-P [1]: 0.037

SMILES: CC(C)C[C@H](NC(=O)[C@H](C)NC(=O)OCc1ccccc1)C(=O)O [N-CBZ-Ala-Leu] (Cbz-Ala-Leu-OH)
K^1 min^-1 (first order reaction constant) [1]: 27.52 min⁻¹
Log S/S-P [1]: 0.688
